Laboratory results taken from patent US9637491B2, “Pyrazolo[4,3-D]pyrimidines as kinase inhibitors” (Origenis GmbH, priority 2012, dated 2017).

Target: T1, SYK kinase (Homo sapiens, UniProt P43405)
T1 construct: purchased Invitrogen, Carlsbad
Test: SYK assay (OMNIA Kinase Assay, Invitrogen)
Assay type: biochemical
Conditions: SYK Activities; 1 mM ATP, 10 μM Omnia Peptide Substrate Tyr 7, 30° C.
Procedure, shortened: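 SYK was added last to start phosphorylation of a chelation-enhanced SOX peptide substrate (10 μM) in the presence of 1 mM ATP and 0.2 mM DTT at 30° C. Kinetic readings at λex 360/λem 485 nm over 30 min gave velocities, fitted sigmoidally against compound concentration to give IC50.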

Compound	IC50 [nM]
FCCn1cc(Nc2nc(C3CC3)nc3cn[nH]c23)cn1 [Example 362, 5-cyclopropyl-N-(1-(2-fluoroethyl)-1H-pyrazol-4-yl)-1H-pyrazolo[4,3-d]pyrimidin-7-amine]	10 to 100
CC(C)(C)N1CCC(n2cc(Nc3nc(-c4nc5c(s4)CCCC5)nc4cn[nH]c34)cn2)CC1 [Example 495, N-(1-(1-(tert-butyl)piperidin-4-yl)-1H-pyrazol-4-yl)-5-(4,5,6,7-tetrahydrobenzo[d]thiazol-2-yl)-1H-pyrazolo[4,3-d]pyrimidin-7-amine]	10 to 100
CC(C)(C)N1CCN(c2ccc(Nc3nc(-c4cccc(NS(C)(=O)=O)c4)nc4cn[nH]c34)cc2)CC1 [Example 39]	100 to 1000
COc1ccc(Nc2nc(C3CCOC3)nc3cn[nH]c23)cc1OC (centres unmarked) [Example 80, N-(3,4-dimethoxyphenyl)-5-(tetrahydrofuran-3-yl)-1H-pyrazolo[4,3-d]pyrimidin-7-amine]	100 to 1000
CC(C)n1cc(Nc2nc(-c3cocn3)nc3cn[nH]c23)cn1 [Example 244, N-(1-isopropyl-1H-pyrazol-4-yl)-5-(oxazol-4-yl)-1H-pyrazolo[4,3-d]pyrimidin-7-amine]	< 10
CC(C)n1cc(Nc2nc(-c3ccc4cn[nH]c4c3)nc3cn[nH]c23)cn1 [Example 414, 5-(1H-indazol-6-yl)-N-(1-isopropyl-1H-pyrazol-4-yl)-1H-pyrazolo[4,3-d]pyrimidin-7-amine]	10 to 100
COc1cc(Nc2nc(C3CC3)nc3cn[nH]c23)ccc1N1CCOCC1 [Example 35, 5-cyclopropyl-N-(3-methoxy-4-morpholinophenyl)-1H-pyrazolo[4,3-d]pyrimidin-7-amine]	< 10
c1cc(-c2nc(Nc3ccc(N4CCOCC4)cc3)c3[nH]ncc3n2)co1 [Example 94, 5-(furan-3-yl)-N-(4-morpholinophenyl)-1H-pyrazolo[4,3-d]pyrimidin-7-amine]	10 to 100
COCCCn1cc(Nc2nc(C(C)(C)C)nc3cn[nH]c23)cn1 [Example 270, 5-(tert-butyl)-N-(1-(3-methoxypropyl)-1H-pyrazol-4-yl)-1H-pyrazolo[4,3-d]pyrimidin-7-amine]	100 to 1000
c1cc(-c2nc(Nc3ccc(N4CCOCC4)cc3)c3[nH]ncc3n2)on1 [Example 69, 5-(isoxazol-5-yl)-N-(4-morpholinophenyl)-1H-pyrazolo[4,3-d]pyrimidin-7-amine]	< 10
COCC(COC)n1cc(Nc2nc(-c3ccc4cn[nH]c4c3)nc3cn[nH]c23)cn1 [Example 448, N-(1-(1,3-dimethoxypropan-2-yl)-1H-pyrazol-4-yl)-5-(1H-indazol-6-yl)-1H-pyrazolo[4,3-d]pyrimidin-7-amine]	10 to 100
CC(C)(C)N1CCC(n2cc(Nc3nc(-c4nc5ccccc5s4)nc4cn[nH]c34)cn2)CC1 [Example 411, 5-(benzo[d]thiazol-2-yl)-N-(1-(1-(tert-butyl)piperidin-4-yl)-1H-pyrazol-4-yl)-1H-pyrazolo[4,3-d]pyrimidin-7-amine]	< 10
CN1CCN(C2CCN(C(=O)c3ccc(Nc4nc(C5CC5)nc5cn[nH]c45)cc3)CC2)CC1 [Example 53, (4-((5-cyclopropyl-1H-pyrazolo[4,3-d]pyrimidin-7-yl)amino)phenyl)(4-(4-methylpiperazin-1-yl)piperidin-1-yl)methanone]	100 to 1000
N#CC1(n2cc(Nc3nc(-c4ccoc4)nc4cn[nH]c34)cn2)CCCCC1 [Example 219, 1-(4-((5-(furan-3-yl)-1H-pyrazolo[4,3-d]pyrimidin-7-yl)amino)-1H-pyrazol-1-yl)cyclohexanecarbonitrile]	100 to 1000
COCCn1cc(Nc2nc(C(C)C)nc3cn[nH]c23)cn1 [Example 185, 5-isopropyl-N-(1-(2-methoxyethyl)-1H-pyrazol-4-yl)-1H-pyrazolo[4,3-d]pyrimidin-7-amine]	100 to 1000
OCCn1cc(Nc2nc(-c3ccc4cn[nH]c4c3)nc3cn[nH]c23)cn1 [Example 476, 2-(4-((5-(1H-indazol-6-yl)-1H-pyrazolo[4,3-d]pyrimidin-7-yl)amino)-1H-pyrazol-1-yl)ethan-1-ol]	10 to 100
CC(=O)N1CCC(n2cc(Nc3nc(C(C)C)nc4cn[nH]c34)cn2)CC1 [Example 186, 1-(4-(4-((5-isopropyl-1H-pyrazolo[4,3-d]pyrimidin-7-yl)amino)-1H-pyrazol-1-yl)piperidin-1-yl)ethan-1-one]	100 to 1000
CC(=O)N1CCN(c2ccc(Nc3nc(C4CCC4)nc4cn[nH]c34)cc2)CC1 [Example 192, 1-(4-(4-((5-cyclobutyl-1H-pyrazolo[4,3-d]pyrimidin-7-yl)amino)phenyl)piperazin-1-yl)ethan-1-one]	< 10
OCCN1CCN(c2ccc(Nc3nc(-c4c(F)cccc4F)nc4cn[nH]c34)cc2)CC1 [Example 501, 2-(4-(4-((5-(2,6-difluorophenyl)-1H-pyrazolo[4,3-d]pyrimidin-7-yl)amino)phenyl)piperazin-1-yl)ethan-1-ol]	10 to 100

Results, then the compound that gave them:

IC50 [nM]	Compound
10 to 100	c1coc(-c2nc(Nc3ccc(N4CCOCC4)cc3)c3[nH]ncc3n2)c1 [Example 86, 5-(furan-2-yl)-N-(4-morpholinophenyl)-1H-pyrazolo[4,3-d]pyrimidin-7-amine]
< 10	CC(=O)N1CCC(n2cc(Nc3nc(-c4nc5ccccc5s4)nc4cn[nH]c34)cn2)CC1 [Example 458, 1-(4-(4-((5-(benzo[d]thiazol-2-yl)-1H-pyrazolo[4,3-d]pyrimidin-7-yl)amino)-1H-pyrazol-1-yl)piperidin-1-yl)ethan-1-one]
< 10	COCCn1cc(Nc2nc(-c3nc4ccccc4s3)nc3cn[nH]c23)cn1 [Example 456, 5-(benzo[d]thiazol-2-yl)-N-(1-(2-methoxyethyl)-1H-pyrazol-4-yl)-1H-pyrazolo[4,3-d]pyrimidin-7-amine]
100 to 1000	c1cncc(-c2nc(Nc3ccc(N4CCOCC4)nc3)c3[nH]ncc3n2)c1 [Example 126, N-(6-morpholinopyridin-3-yl)-5-(pyridin-3-yl)-1H-pyrazolo[4,3-d]pyrimidin-7-amine]
100 to 1000	COc1cc(Nc2nc(-c3ccno3)nc3cn[nH]c23)ccc1N1CCOCC1 [Example 71, 5-(isoxazol-5-yl)-N-(3-methoxy-4-morpholinophenyl)-1H-pyrazolo[4,3-d]pyrimidin-7-amine]
100 to 1000	c1coc(-c2nc(Nc3cnn(C4CCOCC4)c3)c3[nH]ncc3n2)n1 [Example 254, 5-(oxazol-2-yl)-N-(1-(tetrahydro-2H-pyran-4-yl)-1H-pyrazol-4-yl)-1H-pyrazolo[4,3-d]pyrimidin-7-amine]
100 to 1000	O=C1CCCc2ccc(Nc3nc(-c4c(F)cccc4F)nc4cn[nH]c34)cc2N1 [Example 521, 8-((5-(2,6-difluorophenyl)-1H-pyrazolo[4,3-d]pyrimidin-7-yl)amino)-4,5-dihydro-1H-benzo[b]azepin-2(3H)-one]
100 to 1000	Cc1c(Nc2nc(C3CCC3)nc3cn[nH]c23)cnn1C(C)C [Example 325, 5-cyclobutyl-N-(1-isopropyl-5-methyl-1H-pyrazol-4-yl)-1H-pyrazolo[4,3-d]pyrimidin-7-amine]
10 to 100	O=C1CCCc2ccc(Nc3nc(-c4ccc5cn[nH]c5c4)nc4cn[nH]c34)cc2N1 [Example 516, 8-((5-(1H-indazol-6-yl)-1H-pyrazolo[4,3-d]pyrimidin-7-yl)amino)-4,5-dihydro-1H-benzo[b]azepin-2(3H)-one]
< 10	CC(C)(C)N1CCN(c2ccc(Nc3nc(-c4ccco4)nc4cn[nH]c34)cc2)CC1 [Example 112, N-(4-(4-(tert-butyl)piperazin-1-yl)phenyl)-5-(furan-2-yl)-1H-pyrazolo[4,3-d]pyrimidin-7-amine]
100 to 1000	CC(=O)N1CCN(c2ccc(Nc3nc(-c4c(F)cccc4F)nc4cn[nH]c34)cc2)CC1 [Example 13, 1-(4-(4-((5-(2,6-difluorophenyl)-1H-pyrazolo[4,3-d]pyrimidin-7-yl)amino)phenyl)piperazin-1-yl)ethan-1-one]
10 to 100	CC(C)(C)N1CCN(c2ccc(Nc3nc(-c4ccoc4)nc4cn[nH]c34)cc2)CC1 [Example 97, N-(4-(4-(tert-butyl)piperazin-1-yl)phenyl)-5-(furan-3-yl)-1H-pyrazolo[4,3-d]pyrimidin-7-amine]
100 to 1000	COc1cc(Nc2nc([C@H]3C[C@@H]3c3ccccc3)nc3cn[nH]c23)ccc1N1CCOCC1 [Example 508, N-(3-methoxy-4-morpholinophenyl)-5-((1S,2S)-2-phenylcyclopropyl)-1H-pyrazolo[4,3-d]pyrimidin-7-amine]
100 to 1000	COCCn1cc(Nc2nc(-c3cnn(C)c3)nc3cn[nH]c23)cn1 [Example 188, N-(1-(2-methoxyethyl)-1H-pyrazol-4-yl)-5-(1-methyl-1H-pyrazol-4-yl)-1H-pyrazolo[4,3-d]pyrimidin-7-amine]
10 to 100	CC(C)n1cc(Nc2nc(-c3cccc(S(N)(=O)=O)c3)nc3cn[nH]c23)cn1 [Example 426, 3-(7-((1-isopropyl-1H-pyrazol-4-yl)amino)-1H-pyrazolo[4,3-d]pyrimidin-5-yl)benzenesulfonamide]
< 10	OCCn1cc(Nc2nc(-c3ccco3)nc3cn[nH]c23)cn1 [Example 239, 2-(4-((5-(furan-2-yl)-1H-pyrazolo[4,3-d]pyrimidin-7-yl)amino)-1H-pyrazol-1-yl)ethan-1-ol]
100 to 1000	COc1ccc(Nc2nc(-c3cnn(C(C)C(C)C)c3)nc3cn[nH]c23)cc1OC (centres unmarked) [Example 511, N-(3,4-dimethoxyphenyl)-5-(1-(3-methylbutan-2-yl)-1H-pyrazol-4-yl)-1H-pyrazolo[4,3-d]pyrimidin-7-amine]
< 10	CN1CCC(n2cc(Nc3nc(-c4ccoc4)nc4cn[nH]c34)cn2)CC1 [Example 202, 5-(furan-3-yl)-N-(1-(1-methylpiperidin-4-yl)-1H-pyrazol-4-yl)-1H-pyrazolo[4,3-d]pyrimidin-7-amine]
100 to 1000	CN1C(=O)COc2ccc(Nc3nc(-c4ccc5cn[nH]c5c4)nc4cn[nH]c34)cc21 [Example 470, 6-((5-(1H-indazol-6-yl)-1H-pyrazolo[4,3-d]pyrimidin-7-yl)amino)-4-methyl-2H-benzo[b][1,4]oxazin-3(4H)-one]
